Series [1] has as its system Plasmodium falciparum. The series is described as follows: Antiplasmodial activity against chloroquine-sensitive Plasmodium falciparum assessed as inhibition of [3H]hypoxanthine incorporation incubated for 20 to 24 hr prior to [3H]hypoxanthine addition measured after 24 grs by microbeta scintillation counting. Type of series: functional, organism-based.
The test system of series [2] is Plasmodium falciparum. The series is described as follows: Antiplasmodial activity against chloroquine-resistant Plasmodium falciparum assessed as inhibition of [3H]hypoxanthine incorporation incubated for 20 to 24 hr prior to [3H]hypoxanthine addition measured after 24 grs by microbeta scintillation counting. In kind it is functional, organism-based.
Series [3] is described as follows: Cytotoxicity against Homo sapiens (human) RBC assessed as cell lysis. Type of series: cell-based. The settings on record: erythrocyte.
Series [4] has as its system Plasmodium falciparum. Nature of the series: Antiplasmodial activity against chloroquine-sensitive Plasmodium falciparum by schizont maturation assay. In kind it is functional, organism-based.
The test system of series [5] is Plasmodium falciparum. Nature of the series: Antiplasmodial activity against chloroquine-resistant Plasmodium falciparum by schizont maturation assay. In kind it is functional, organism-based.

pIC50: −log10 of the molar value. Activity calls are given as the source filed them. The calls are words filed in the database; no cut-off is given here.

In the case of `N[C@H](Cc1c[nH]c2ccccc12)C(=O)Nc1nccs1`, the pIC50 in the series on Plasmodium falciparum [1] was 4.95; with Plasmodium falciparum [2] it was 4.71. Further, the IC90 in the series on Plasmodium falciparum [1] was found to be 16.1 µM; in the series on Plasmodium falciparum [2], 17.1 µM.
With `CC(C)[C@H](NC(=O)OC(C)(C)C)C(=O)Nc1nccs1`, in the series with Plasmodium falciparum [1], the pIC50 was 5.03 and the IC90 was determined as 12.5 µM. For the same molecule, in the series with Plasmodium falciparum [2], the negative-log IC50 (pIC50) is 4.96 and the IC90 turned out to be 18.6 µM.
The like results for `CC[C@H](C)[C@H](NC(=O)OC(C)(C)C)C(=O)Nc1nccs1` were, in that order, 5.20, 9.74 µM, 5.11 and 11.1 µM.
As to `CC(C)(C)OC(=O)N[C@@H](Cc1c[nH]c2ccccc12)C(=O)Nc1nccs1`, the pIC50 in the series on Plasmodium falciparum [1] was 5.46; with Plasmodium falciparum [2], 5.31. The IC90 with Plasmodium falciparum [1] amounted to 7.89 µM; with Plasmodium falciparum [2] it was 9.12 µM. Also, in the series on Plasmodium falciparum [1], the IC99 stood at 18.1 µM. Also, the Activity result in series [3] is “Non-toxic”. The outcome in the series with Plasmodium falciparum [4] and in the series with Plasmodium falciparum [5] was Active.
As to `CC(C)(C)OC(=O)NCC(=O)Nc1nccs1`, the negative-log IC50 (pIC50) was 4.84 in the series with Plasmodium falciparum [1] and 4.76 in the series with Plasmodium falciparum [2]. For the same molecule, the concentration for an effect of 90% (IC90) in the series with Plasmodium falciparum [1] came out at 21.3 µM; in the series with Plasmodium falciparum [2], 22.4 µM.
The like results for `N[C@H](Cc1ccccc1)C(=O)Nc1nccs1` were, in that order, 4.79, 4.76, 33.5 µM and 45.7 µM.
On the same counts, the results for `C[C@H](NC(=O)OC(C)(C)C)C(=O)Nc1nccs1` are 4.92, 4.73, 24.5 µM and 27.2 µM.
In the case of `CCN(CC)CCCC(C)Nc1ccnc2cc(Cl)ccc12` (stereo not drawn) [CHLOROQUINE], the IC90 with Plasmodium falciparum [1] was 0.05 µM; in the series on Plasmodium falciparum [2], 0.25 µM.
As for `CC(C)C[C@H](NC(=O)OC(C)(C)C)C(=O)Nc1nccs1`, in the series with Plasmodium falciparum [1], the pIC50 is 5.20 and the concentration for an effect of 90% (IC90) was found to be 14.5 µM. In the series with Plasmodium falciparum [2], the pIC50 was 5.05 and the 90% effect concentration (IC90) turned out to be 18.3 µM.
As to `CC1CCCN1[C@H](NC(=O)OC(C)(C)C)C(=O)Nc1nccs1` (stereo partly drawn), in the series on Plasmodium falciparum [1], the pIC50 was 5.31, the concentration for an effect of 90% (IC90) came to 11.1 µM and the IC99 was 14.9 µM. For the same molecule, in the series with Plasmodium falciparum [2], the pIC50 is 5.21 and the IC90 is 12.7 µM. Also, the Activity result in series [3] is reported as “Non-toxic”. Moreover, the result with Plasmodium falciparum [4] was Active. Besides, the outcome in the series with Plasmodium falciparum [5] was Active.
On to `CSCC[C@H](NC(=O)OC(C)(C)C)C(=O)Nc1nccs1`, for which, in the series on Plasmodium falciparum [1], the pIC50 was 4.99 and the IC90 was 29.1 µM. Further, in the series with Plasmodium falciparum [2], the pIC50 was 4.74 and the IC90 stood at 31.4 µM.
Take `CC(C)(C)OC(=O)N[C@@H](CSCc1ccccc1)C(=O)Nc1nccs1`: the pIC50 in the series with Plasmodium falciparum [1] is 5.04; in the series on Plasmodium falciparum [2], 4.97. For the same molecule, the values for the 90% effect concentration (IC90) with Plasmodium falciparum [1] and in the series on Plasmodium falciparum [2] were 12.6 µM and 15.5 µM, respectively.
The like results for `CC(C)(C)OC(=O)N[C@@H](Cc1ccccc1)C(=O)Nc1nccs1` were, in that order, 5.25, 5.13, 16.3 µM and 18.6 µM.

The values above are taken from ChEMBL document CHEMBL3044965, “Design, synthesis, and antimalarial evaluation of thiazole-derived amino acids” (Med Chem Res, 2008).
